Data: article PMC6658998, “Pharmacological characterization of the seven human NOX isoforms and their inhibitors” (Redox Biology, 2019)
pIC50: −log10 of the molar value.

What was measured:
Type in all cases: cell-based
NOX2 = biological target: T1, NOX2 (Homo sapiens, UniProt P04839); experiment: NOX2-dependent oxygen consumption in PMA-activated human neutrophils (Seahorse); details: 100 nM PMA
T1 sequence (P04839 2-570 limits assumed): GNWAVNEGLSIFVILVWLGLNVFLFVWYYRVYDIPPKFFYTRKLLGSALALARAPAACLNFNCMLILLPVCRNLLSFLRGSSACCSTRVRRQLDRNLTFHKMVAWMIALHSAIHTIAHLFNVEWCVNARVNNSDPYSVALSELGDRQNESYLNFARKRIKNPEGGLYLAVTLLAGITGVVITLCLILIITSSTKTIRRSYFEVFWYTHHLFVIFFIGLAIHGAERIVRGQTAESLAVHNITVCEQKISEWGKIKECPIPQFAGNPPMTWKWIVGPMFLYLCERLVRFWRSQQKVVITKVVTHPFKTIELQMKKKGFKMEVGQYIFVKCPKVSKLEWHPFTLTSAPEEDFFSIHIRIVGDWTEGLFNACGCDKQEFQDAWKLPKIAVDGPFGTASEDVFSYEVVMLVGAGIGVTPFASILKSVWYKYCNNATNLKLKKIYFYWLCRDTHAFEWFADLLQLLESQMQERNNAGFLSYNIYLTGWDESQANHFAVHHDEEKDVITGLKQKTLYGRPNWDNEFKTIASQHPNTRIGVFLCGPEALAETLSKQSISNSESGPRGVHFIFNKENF
T1 sequence (P13498 1-195 partner): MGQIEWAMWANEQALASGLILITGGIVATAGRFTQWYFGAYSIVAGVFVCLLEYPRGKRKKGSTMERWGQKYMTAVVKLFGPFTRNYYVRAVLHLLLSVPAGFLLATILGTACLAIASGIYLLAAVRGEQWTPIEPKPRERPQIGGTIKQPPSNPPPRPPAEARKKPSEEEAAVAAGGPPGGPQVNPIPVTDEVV
Method: Human polymorphonuclear leukocytes (PMN) were isolated from fresh whole blood collected from healthy volunteers as described. Briefly, 32 mL blood was collected in 8 mL sodium citrate (3.8%) and blood cells sedimented for 40 min with dextran T500 (4% in NaCl 0.9%). The upper yellowish fraction containing leukocytes was collected and centrifugated at 380×g for 10 min. Pellets were resuspended in PBS and separated using Ficoll Plaque™ Plus (450 ×g , with no brake) for 15 min, RT. Red blood cells were lysed by addition of 5 mL H2O for 30 s followed by addition of 5 mL NaCl 1.8%. Remaining PMN were collected by centrifugation for 10 min at 250 ×g , washed and resuspended in HBSS, counted and kept on ice for a maximum of 30 min until they were used for oxygen consumption measurement.
Oxygen consumption was determined using human neutrophils and NOX4 T-Rex HEK293 cells using the Seahorse XF24 Extracellular Flux Analyzer. Neutrophils were plated in 24-well microplates (250,000 cells/well in 200 μL HBSS) and incubated at room temperature for 15 min for attachment. The medium was changed to DMEM without sodium bicarbonate containing 10 mM Hepes prewarmed to 37 °C, and the cells were incubated for 30 min at 37 °C in a non-CO2 incubator. Basal oxygen consumption was recorded for 8 min followed by addition of compounds and 8 min preincubation. PMA (100 nM) was added where indicated and the oxygen consumption rate was determined for two cycles of 8 min each. The signal obtained from neutrophils without PMA treatment was subtracted as a blank, while the signal obtained from PMA + DMSO-treated neutrophils was considered as 100%.

NOX3 [1] = biological target: T2, NOX3 (Homo sapiens, UniProt Q9HBY0); experiment: WST-1 O2•- detection in tetracycline-induced NOX3 HEK293 T-REx cells
T2 sequence (Q9HBY0 1-568): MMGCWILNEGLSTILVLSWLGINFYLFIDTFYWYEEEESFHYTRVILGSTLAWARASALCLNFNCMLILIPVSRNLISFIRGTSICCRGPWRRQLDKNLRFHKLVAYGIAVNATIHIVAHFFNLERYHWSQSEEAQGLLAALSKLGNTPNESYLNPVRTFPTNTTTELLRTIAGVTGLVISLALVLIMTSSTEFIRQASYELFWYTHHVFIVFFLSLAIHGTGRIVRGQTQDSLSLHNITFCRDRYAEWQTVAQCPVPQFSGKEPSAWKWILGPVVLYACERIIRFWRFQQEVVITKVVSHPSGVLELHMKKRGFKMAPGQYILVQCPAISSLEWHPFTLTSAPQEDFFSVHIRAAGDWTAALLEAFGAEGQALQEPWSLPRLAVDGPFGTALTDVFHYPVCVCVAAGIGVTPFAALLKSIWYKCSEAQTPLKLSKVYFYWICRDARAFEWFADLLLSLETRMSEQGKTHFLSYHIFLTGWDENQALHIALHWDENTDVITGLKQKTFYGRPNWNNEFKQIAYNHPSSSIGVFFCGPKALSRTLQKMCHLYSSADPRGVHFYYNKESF
T2 sequence (P13498 1-195 partner): T1 sequence (P13498 1-195 partner)
T2 sequence (Q8NFA2 1-376 partner): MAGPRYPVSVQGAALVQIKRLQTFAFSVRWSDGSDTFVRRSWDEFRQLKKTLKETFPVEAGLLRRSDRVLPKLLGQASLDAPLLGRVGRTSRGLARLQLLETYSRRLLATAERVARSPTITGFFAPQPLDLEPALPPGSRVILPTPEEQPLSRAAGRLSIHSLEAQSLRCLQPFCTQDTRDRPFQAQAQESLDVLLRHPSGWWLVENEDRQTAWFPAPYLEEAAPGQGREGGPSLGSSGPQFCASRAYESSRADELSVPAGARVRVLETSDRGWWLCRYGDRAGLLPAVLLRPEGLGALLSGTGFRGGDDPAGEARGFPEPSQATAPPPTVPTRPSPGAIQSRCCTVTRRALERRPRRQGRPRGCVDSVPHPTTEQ
Text: (§1) Compounds were dispensed prior addition of cells.

NOX3 [2] = biological target: T2, NOX3; experiment: Amplex Red/HRP H2O2 detection in tetracycline-induced NOX3 HEK293 T-REx cells
Text: as §1

[3] = WST-1, tetracycline 1 μg/mL 24 h, read-out: IC50 NOX3 (T-REx) WST-1
[4] = Amplex red/HRP, tetracycline 1 μg/mL 24 h, read-out: IC50 NOX3 (T-REx) AR

SMILES | Inhibition of NOX2-dependent oxygen consumption (NOX2; concentration not given) | pIC50 (NOX3 [1]; [3]) | pIC50 (NOX3 [2]; [4]) | Inhibition of NOX2-dependent oxygen consumption (NOX2; compound 50 μM) | Inhibition of NOX2-dependent oxygen consumption (NOX2; compound 300 μM) | pIC50 (NOX3 [1]) | pIC50 (NOX3 [2])
O=c1c2ccccc2[se]n1-c1ccccc1 [Ebselen, ebselen] | inhibited | 4.46 | 5.54 | – | – | – | –
c1ccc(Cn2nnc3c(Sc4nc5ccccc5o4)ncnc32)cc1 [VAS2870, 3-benzyl-7-(2-benzoxazolyl)thio-1,2,3-triazolo[4,5-d]pyrimidine] | inhibited | < 4.30 | < 4.30 | – | – | – | –
Cc1c2c(=O)n(-c3ccccc3Cl)[nH]c2cc(=O)n1Cc1ccccn1 [GKT136901] | – | < 4.30 | 5.24 | not | – | – | –
COc1cc(C(C)=O)ccc1O [Apocynin, apocynin] | – | < 4.30 | < 4.30 | – | only weakly | – | –
COc1cc(C(C)=O)cc(-c2cc(C(C)=O)cc(OC)c2O)c1O [Diapocynin, diapocynin] | – | < 4.30 | < 4.30 | only weakly | – | – | –
c1ccc2c(c1)[I+]c1ccccc1-2 [DPI, diphenylene iodonium chloride] | inhibited | – | – | – | – | 6.70 | 5.66
